One data set has as its system Puccinia recondita. Kind of data set: Example IX-A: in vivo preventive test on Puccinia recondita (brown rust on wheat). Conditions: 264 h, compounds of formula IX, 500 ppm of active ingredient, wheat plants, preventive spray, evaluated 11 days after inoculation, read-out: efficacy. Here is the method:
Example IX-A: In Vivo Preventive Test on Puccinia Recondita (Brown Rust on Wheat)
(§1) The active ingredients are made soluble and homogenized in a mixture of Dimethyl sulfoxide/Acetone/Tween® 80 and then diluted in water to the desired concentration.
The young plants of wheat are treated by spraying the active ingredient prepared as described above. Control plants are treated only with an aqueous solution of Acetone/Dimethyl sulfoxide/Tween® 80.
After 24 hours, the plants are contaminated by spraying the leaves with an aqueous suspension of Puccinia recondita spores. The contaminated wheat plants are incubated for 24 hours at 20° C. and at 100% relative humidity and then for 10 days at 20° C. and at 70-80% relative humidity.
(§2) The test is evaluated 11 days after the inoculation. 0% means an efficacy which corresponds to that of the control plants while an efficacy of 100% means that no disease is observed.

The next data set has as its system Septoria tritici. Put plainly: Example IX-B: in vivo preventive test on Septoria tritici (leaf spot on wheat). Conditions: Zymoseptoria tritici, 576 h; compounds of formula IX; 500 ppm of active ingredient; wheat plants, preventive spray; evaluated 24 days after inoculation; read-out: efficacy. The method in brief:
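Wheat seedlings sprayed preventively with compound dissolved in DMSO/acetone/Tween 80 and diluted in water; solvent-only controls. Spore suspension of S. tritici sprayed 24 h later; 72 h at 18 °C/100% RH, then 21 days at 20 °C/90% RH. Efficacy scored 24 days post-inoculation, 0% = control, 100% = no disease.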

Another data set has as its system Uromyces appendiculatus. Kind of data set: Example IX-D: in vivo preventive test on Uromyces appendiculatus (bean rust). As to conditions: 264 h, compounds of formula IX, 500 ppm of active ingredient, bean plants, preventive spray, evaluated 11 days after inoculation, read-out: efficacy. Here is the method: Example IX-D: In Vivo Preventive Test on Uromyces Appendiculatus (Bean Rust)
as §1
The young plants of bean are treated by spraying the active ingredient prepared as described above. Control plants are treated only with an aqueous solution of Acetone/Dimethyl sulfoxide/Tween® 80.
After 24 hours, the plants are contaminated by spraying the leaves with an aqueous suspension of Uromyces appendiculatus spores. The contaminated bean plants are incubated for 24 hours at 20° C. and at 100% relative humidity and then for 10 days at 20° C. and at 70-80% relative humidity.
as §2
control plants while an efficacy of 100% means that no disease was observed.

Data set [1] can be described thus: Log P by HPLC on reversed phase columns (EEC directive 79/831 Annex V.A8; methods [a], [b], [c]). Type of data set: physicochemical. Conditions: reversed phase HPLC column; method [a]: LC-UV, acidic range, 0.1% formic acid in water and acetonitrile as eluent (linear gradient from 10% to 95% acetonitrile). The method in brief: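 Log P derived from retention times, interpolated linearly between bracketing straight-chain alkan-2-ones (3–16 carbons) of known Log P. Eluents ran acetonitrile 10% to 95% against water with 0.1% formic acid ([a], acidic), 0.001 M ammonium acetate ([b], neutral) or 0.1% phosphoric acid ([c], acidic); UV read-out.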

Another data set deals with Sphaerotheca fuliginea. Kind of data set: Example IX-C: in vivo preventive test on Sphaerotheca fuliginea (powdery mildew on cucurbits). Conditions: Podosphaera fuliginea, 360 h; compounds of formula IX; 500 ppm of active ingredient; gherkin plants, preventive spray; evaluated 15 days after inoculation; read-out: efficacy. The method in brief: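 Young gherkin plants sprayed with compound in DMSO/acetone/Tween 80 diluted in water, then inoculated 24 h later with Sphaerotheca fuliginea spores. Kept 72 h at 18 °C/100% RH, then 12 days at 20 °C/70-80% RH; efficacy scored 15 days post-inoculation, 0% = control, 100% = no disease.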

For orientation: chromatographic logP means lipophilicity estimated from chromatographic retention. A low value points to lower lipophilicity. Take `N#Cc1cncn1CC(=O)c1ccc(Oc2ccc(Br)cc2)cc1F` [IX-62]: the pest or weed control at 500 ppm in the data set with Puccinia recondita, with Septoria tritici, in the data set with Uromyces appendiculatus and with Sphaerotheca fuliginea was 90 to 100% throughout. In data set [1], this compound registered a chromatographic logP of 3.33.
`N#Cc1cncn1CC(=O)c1ccc(Oc2ccc(C(F)(F)F)cc2)cc1C(F)(F)F` [IX-69]: the pest or weed control at 500 ppm in the data set with Puccinia recondita, in the data set on Septoria tritici, with Uromyces appendiculatus and with Sphaerotheca fuliginea was 90 to 100% each time. Also, in data set [1], the chromatographic logP came out at 3.69.
As to `N#Cc1cncn1CC(=O)c1cnc(Oc2ccc(C(F)(F)F)cc2)cc1C(F)(F)F` [IX-89], the pest or weed control at 500 ppm in the data set on Puccinia recondita lay in the range of 80 to 89%; in the data set on Septoria tritici it was 90 to 100%; in the data set with Uromyces appendiculatus it was 90 to 100%; in the data set on Sphaerotheca fuliginea, 90 to 100%. In data set [1], this compound displayed a chromatographic logP of 3.42.
With `N#Cc1cncn1CC(=O)c1ccc(Oc2ccc(Cl)nc2)cc1Cl` [IX-60], the pest or weed control at 500 ppm was in the range of 80 to 89% in the data set on Puccinia recondita, 90 to 100% in the data set on Septoria tritici, 90 to 100% in the data set with Uromyces appendiculatus and 90 to 100% in the data set on Sphaerotheca fuliginea. This compound also came in with a chromatographic logP in data set [1] of 2.62.
Consider `O=C(Cn1cncc1Br)c1ccc(Oc2ccc(I)cc2)cc1Cl` [IX-32], for which the pest or weed control at 500 ppm with Puccinia recondita is 80 to 89%; in the data set on Septoria tritici, 90 to 100%; in the data set with Uromyces appendiculatus, 90 to 100%; in the data set on Sphaerotheca fuliginea, 90 to 100%. Further, the chromatographic logP in data set [1] was found to be 3.35.
In the case of `O=C(Cn1cncc1Br)c1ccc(Oc2ccc(Cl)cc2)cc1Br` [IX-33], the pest or weed control at 500 ppm in the data set on Puccinia recondita, in the data set on Septoria tritici, in the data set with Uromyces appendiculatus and in the data set with Sphaerotheca fuliginea was 90 to 100% throughout. In data set [1], this compound yielded a chromatographic logP of 3.13.
As to `N#Cc1cncn1CC(=O)c1ccc(Oc2ccc(I)cc2)cc1F` [IX-63], the pest or weed control at 500 ppm with Puccinia recondita, in the data set on Septoria tritici, with Uromyces appendiculatus and in the data set on Sphaerotheca fuliginea was 90 to 100% throughout. The compound further came in with a chromatographic logP in data set [1] of 3.48.
For `N#Cc1cncn1CC(=O)c1ccc(Oc2ccc(Cl)cc2)cc1Br` [IX-61], the pest or weed control at 500 ppm was in the range of 90 to 100% with Puccinia recondita, 80 to 89% with Septoria tritici, 90 to 100% in the data set on Uromyces appendiculatus and 90 to 100% in the data set with Sphaerotheca fuliginea. The compound also came in with a chromatographic logP in data set [1] of 3.53.
On to `N#Cc1cncn1CC(=O)c1ccc(Oc2ccc(Br)cn2)cc1Cl` [IX-77], for which the pest or weed control at 500 ppm in the data set on Puccinia recondita, with Septoria tritici, in the data set on Uromyces appendiculatus and in the data set with Sphaerotheca fuliginea was 90 to 100% in each case. For the same compound, the chromatographic logP in data set [1] came out at 2.94.
Consider `O=C(Cn1cncc1F)c1cnc(Oc2ccc(C(F)(F)F)cc2)cc1Br` [IX-111], for which the pest or weed control at 500 ppm with Puccinia recondita is 80 to 89%; in the data set with Septoria tritici, 90 to 100%; with Uromyces appendiculatus, 90 to 100%; in the data set on Sphaerotheca fuliginea, 90 to 100%. In data set [1], the chromatographic logP amounted to 2.64.
As to `N#Cc1cncn1CC(=O)c1cnc(Oc2ccc(Cl)cc2)cc1Cl` [IX-91], the pest or weed control at 500 ppm with Puccinia recondita, in the data set on Septoria tritici, in the data set on Uromyces appendiculatus and in the data set on Sphaerotheca fuliginea was 90 to 100% throughout. In data set [1], this compound had a chromatographic logP of 3.
Regarding `O=C(Cn1cncc1Cl)c1cnc(Oc2ccc(Cl)cc2)cc1Br` [IX-50], the pest or weed control at 500 ppm in the data set with Puccinia recondita was in the range of 80 to 89%; in the data set on Septoria tritici it was 90 to 100%; in the data set on Uromyces appendiculatus it was 90 to 100%; with Sphaerotheca fuliginea it was 90 to 100%. The compound also showed a chromatographic logP in data set [1] of 2.82.
For `N#Cc1cncn1CC(=O)c1cnc(Oc2ccc(OC(F)(F)F)cc2)cc1C(F)(F)F` [IX-112], the pest or weed control at 500 ppm was in the range of 80 to 89% in the data set with Puccinia recondita, 80 to 89% in the data set with Septoria tritici, 90 to 100% in the data set on Uromyces appendiculatus and 90 to 100% in the data set with Sphaerotheca fuliginea. In data set [1], this compound displayed a chromatographic logP of 3.64.
In the case of `O=C(Cn1cncc1Br)c1ccc(Oc2ccc(OC(F)(F)F)cc2)cc1Br` [IX-06], the pest or weed control at 500 ppm in the data set with Puccinia recondita fell in the range of 80 to 89%; in the data set on Septoria tritici it was 90 to 100%; with Uromyces appendiculatus, 70 to 79%; in the data set on Sphaerotheca fuliginea, 90 to 100%. The same compound displayed a chromatographic logP in data set [1] of 3.53.
For `O=C(Cn1cncc1Cl)c1ccc(Oc2ccc(Br)cn2)cc1Cl` [IX-79], the pest or weed control at 500 ppm in the data set with Puccinia recondita lay within 80 to 89%; with Septoria tritici, 90 to 100%; in the data set on Uromyces appendiculatus it was 90 to 100%; in the data set with Sphaerotheca fuliginea it was 90 to 100%. This compound also gave a chromatographic logP in data set [1] of 2.59.
With `N#Cc1cncn1CC(=O)c1ccc(Oc2ccc(Br)cc2)cc1Br` [IX-67], the pest or weed control at 500 ppm in the data set on Puccinia recondita, with Septoria tritici, with Uromyces appendiculatus and with Sphaerotheca fuliginea was 90 to 100% each time. Further, in data set [1], the chromatographic logP turned out to be 3.62.
As for `O=C(Cn1cncc1F)c1ccc(Oc2ccc(C(F)F)cc2)nc1C(F)(F)F` [IX-134], the pest or weed control at 500 ppm in the data set on Puccinia recondita is 80 to 89%; in the data set on Septoria tritici it was 90 to 100%; in the data set on Uromyces appendiculatus it was 90 to 100%; in the data set with Sphaerotheca fuliginea, 90 to 100%. Besides, the chromatographic logP in data set [1] was 2.48.
As to `O=C(Cn1cncc1Cl)c1ccc(Oc2ccc(Br)cc2)cc1C(F)(F)F` [IX-29], the pest or weed control at 500 ppm with Puccinia recondita lay within 90 to 100%; with Septoria tritici, 90 to 100%; in the data set on Uromyces appendiculatus, 80 to 89%; in the data set on Sphaerotheca fuliginea it was 80 to 89%. The compound also gave a chromatographic logP in data set [1] of 3.37.
On to `N#Cc1cncn1CC(=O)c1ccc(Oc2ccc(I)cc2)cc1Br` [IX-66], for which the pest or weed control at 500 ppm in the data set on Puccinia recondita, in the data set with Septoria tritici, in the data set on Uromyces appendiculatus and in the data set with Sphaerotheca fuliginea was 90 to 100% in each case. This compound gave a chromatographic logP in data set [1] of 3.8.
`O=C(Cn1cncc1F)c1cnc(Oc2ccc(Br)cc2)cc1C(F)(F)F` [IX-82, 1-[6-(4-bromophenoxy)-4-(trifluoromethyl)-3-pyridyl]-2-(5-fluoroimidazol-1-yl)ethanone]: the pest or weed control at 500 ppm was 70 to 79% in the data set on Puccinia recondita, 90 to 100% in the data set on Septoria tritici, 90 to 100% with Uromyces appendiculatus and 90 to 100% with Sphaerotheca fuliginea. Besides, the chromatographic logP in data set [1] came to 2.73.
As for `N#Cc1cncn1CC(=O)c1ccc(Oc2ccc(Cl)cc2)cc1C(F)F` [IX-75], the pest or weed control at 500 ppm in the data set with Puccinia recondita, with Septoria tritici, with Uromyces appendiculatus and in the data set on Sphaerotheca fuliginea was 90 to 100% each time. Moreover, the chromatographic logP in data set [1] was 3.39.
Take `N#Cc1cncn1CC(=O)c1ccc(Oc2ccc(Cl)cc2)nc1C(F)(F)F` [IX-107]: the pest or weed control at 500 ppm with Puccinia recondita lay in the range of 90 to 100%; in the data set with Septoria tritici, 90 to 100%; in the data set on Uromyces appendiculatus, 80 to 89%; with Sphaerotheca fuliginea, 90 to 100%. Besides, the chromatographic logP in data set [1] was determined as 3.33.
As to `O=C(Cn1cncc1C(F)(F)F)c1ccc(Oc2ccc(Cl)cc2)cc1F` [IX-80], the pest or weed control at 500 ppm in the data set on Puccinia recondita, in the data set with Septoria tritici, with Uromyces appendiculatus and in the data set on Sphaerotheca fuliginea was 90 to 100% in each case. The chromatographic logP in data set [1] was 3.85.
`O=C(Cn1cncc1Cl)c1ccc(Oc2ccc(Br)nc2)cc1Cl` [IX-78]: the pest or weed control at 500 ppm was 80 to 89% in the data set with Puccinia recondita, 90 to 100% in the data set with Septoria tritici, 90 to 100% in the data set on Uromyces appendiculatus and 90 to 100% in the data set on Sphaerotheca fuliginea. Also, in data set [1], the chromatographic logP was determined as 2.32.

(Values after patent US20200031778A1, “NOVEL 5-SUBSTITUTED IMIDAZOLYLMETHYL DERIVATIVES” (Bayer CropScience Aktiengesellschaft, priority 2016, published 2020).)
